Data on 9 compounds can be found in publication PMC7355942, “Cytotoxicity Evaluation of Novel bis(2-aminoethyl)amine Derivatives” (Molecules, 2020).

In series [1] the test system is interleukin-6 (IL-6) secretion, HTB-140 cells. As to the kind of experiment: Interleukin-6 assay (ELISA), HTB-140. Type of series: cell-based, human. The following applies: HTB-140, IC50 dose. From the text: (§1) The mechanism of cytotoxic action of bis(2-aminoethyl)-amine derivatives can be associated with reducing interleukin-6 (IL-6) levels, which include the strong pro-inflammatory particles.
(§2) Description related to conducted biological studies including cell culture, suitable conditions, and methodology was presented in our previous paper.
(§3) Figure 9 Effects of compounds 3–6 on IL-6 levels, measured by the ELISA test. Data are expressed as the mean ± SD from three independent experiments, performed in triplicate. *** p ≤ 0.001, ** p ≤ 0.01, * p ≤ 0.05, as compared to the control.

Series [2] relates to HaCaT cells (normal keratinocytes). Description: Lactate dehydrogenase (LDH) release assay, HaCaT. The following applies: 72 h. Type of series: cell-based, human. The procedure:
(§4) Lactate dehydrogenase assay (LDH) as a marker of cell death was evaluated for synthesized ethylthioureas 1–7. The compounds were tested at concentrations of 10, 50, and 100 µM. At the lowest dose, no activity was observed.
as §2
(§5) Figure 6 LDH release as a marker of a cell death in the HaCaT, HTB-140, CaCo-2, A549 cells, treated for 72 h with various concentrations of derivatives 3–6 (100 µM for compounds 3–5, 100 and 50 µM for 6). Data are expressed as the mean ± SD from three independent experiments, performed in triplicate. *** p ≤ 0.001, ** p ≤ 0.01, as compared to the control.

For series [3], the system named is A549 cells (epithelial lung carcinoma). As to the kind of experiment: MTT cytotoxicity assay, A549. The note with it: for IC50: A549, MTT, mean ± SD; for SI (Selectivity Index): IC50 for normal cell line (HaCaT)/IC50 A549. Type of series: cell-based, human.
From the text: (§6) All derivatives of bis(2-aminoethyl)amine were screened for their in vitro cytotoxic activity against a panel of human cancer cell lines, namely colorectal adenocarcinoma (CaCo-2), epithelial lung carcinoma (A549), and melanoma (HTB-140), which is contrary to normal (HaCaT) cell lines, by using the MTT method.
as §2

Series [4] has as its system HaCaT cells (immortal keratinocytes). As to the kind of experiment: MTT cytotoxicity assay, HaCaT normal cells. In kind it is cell-based, human. The note with it: mean ± SD.
From the text: as §6, §2

The subject of series [5] is HaCaT, HTB-140, CaCo-2, A549 cells. As to the kind of experiment: Lactate dehydrogenase (LDH) release assay, statements over several cell lines. The following applies: pathological cell lines (HTB-140, CaCo-2, A549), 50 µM, 72 h. In kind it is cell-based, human. How it is done:
as §4, §2, §5

Series [6] deals with CaCo-2 cells (colorectal adenocarcinoma). As to the kind of experiment: MTT cytotoxicity assay, CaCo-2. Type of series: cell-based, human. The note with it: for IC50: Homo sapiens, CaCo-2, MTT, mean ± SD; for SI (Selectivity Index): IC50 for normal cell line (HaCaT)/IC50 CaCo-2.
From the text: as §6, §2

The next series relates to HTB-140 cells (melanoma). As to the kind of experiment: MTT cytotoxicity assay, HTB-140. In kind it is cell-based, human. The following applies: for IC50: HTB-140, MTT, mean ± SD; for SI (Selectivity Index): IC50 for normal cell line (HaCaT)/IC50 HTB-140.
From the text: as §6, §2

For a further series, the system named is A549 cells. As to the kind of experiment: Apoptosis, Annexin V-FITC/7-AAD flow cytometry, A549. The note with it: A549, IC50 concentration, 72 h. Type of series: cell-based, human. How it is done:
(§7) To establish in vitro, the anti-proliferative mechanism of activity, the influence of bis(2-aminoethyl)amine derivatives on early and late apoptosis was performed, using flow cytometry analysis (Figure 7).
as §2
(§8) Figure 7 The effect of derivatives 3–6 on early and late apoptosis, or necrosis in HaCaT, CaCo-2, A549, and HTB-140 cells. Cells were incubated for 72 h with tested compounds and used in their IC50 concentrations. Then cells were harvested, stained with Annexin V-FITC and 7-AAD, and analyzed using flow cytometry. Data are expressed as the percentage of cells at an early stage of apoptosis or late stage of apoptosis or necrosis. Data are given as means ± SD, *** p ≤ 0.001, ** p ≤ 0.01, as compared to the control.
Figure 8 The effect of compounds 3–6 on early and late apoptosis or necrosis in A549 cells, detected with Annexin V-FITC/7-AAD by flow cytometry. […] The upper right and upper left quadrants represent the late stage of apoptotic or necrotic cells (Annexin V-FITC positive, 7-AAD positive, Annexin V-FITC negative and 7-AAD positive staining, respectively). The lower left quadrant represents unstained A549 cells (Annexin V-FITC negative, 7-AAD negative). TEXT PRINTED IN THE PICTURE: 3: 0,1; 26,6; 36,9; 36,5 | 4: 0,1; 23,4; 47,2; 29,3 | 5: 0,2; 42,5; 28,4; 28,9 | 6: 0,2; 37,6; 19,5; 42,7 DOUBTS OF THE COPYIST ABOUT THIS PICTURE: 3, lower left quadrant value: 36,9, printed over the dot cloud, so the digits 6 and 9 are not fully certain / 6, lower left quadrant value: 19,5, partly printed over the dot cloud, so the digits 9 and 5 are not fully certain / The quadrant numbers are printed with no measure or unit. They are listed in the order upper left, upper right, lower left, lower right / The Control plot (0,1; 5,2; 87,4; 7,3) was left out because it is not a substance

The test system of a further series is CaCo-2 cells. As to the kind of experiment: Apoptosis, Annexin V-FITC/7-AAD flow cytometry, CaCo-2. In kind it is cell-based, human. The note with it: CaCo-2, IC50 concentration, 72 h. The procedure:
as §7, §2, §8

Series [7] deals with panel of human cancer cell lines (CaCo-2, A549, HTB-140) and normal HaCaT cells. Description: MTT cytotoxicity assay, statements over the whole cell panel. In kind it is cell-based. The note with it: for IC50: Homo sapiens, all cancer cell lines (CaCo-2, A549, HTB-140), read-out: IC50, range over cancer cell lines; for antiproliferative / cytotoxic activity in words: chosen cancer and normal cell lines.
From the text: as §6, §2

The test system of series [8] is interleukin-6 (IL-6) release, A549 cells. As to the kind of experiment: Interleukin-6 assay (ELISA), A549. The note with it: A549, IC50 dose. In kind it is cell-based, human.
From the text: as §1, §2, §3

A further series relates to HTB-140 cells. Description: Apoptosis, Annexin V-FITC/7-AAD flow cytometry, HTB-140. In kind it is cell-based, human. The note with it: HTB-140, IC50 concentration, 72 h. How it is done: as §7, §2, §8

In the case of `S=C(NCCc1ccccc1)NCCN(CCNC(=S)NCCc1ccccc1)C(=S)NCCc1ccccc1` [Compound 6, 3-phenethyl-1,1-bis[2-(3-phenethylthioureido)ethyl]thiourea], in series [1], the “inhibition of IL-6 secretion, in words” value is on record as “two-fold”. Also, the LDH release was 8.3% in series [2] (50 µM) and 17.9% in series [2] (100 µM). In addition, the IC50 in series [3] (Homo sapiens) was 15 ± 1.7 µM; in series [4] (Homo sapiens), 16.1 ± 5.7 µM; in series [6], 15.7 ± 1.7 µM; with HTB-140 cells (melanoma) (Homo sapiens), 14 ± 2.5 µM; in series [7] it was 14 to 15.7 µM. Besides, the “SI (Selectivity Index)” value in series [3] came to 1.08; in series [6], 1.02; in the series on HTB-140 cells (melanoma), 1.16. In addition, the LDH secretion in series [5] was 8.09–10.4%. For the same compound, in the series with A549 cells, the late apoptosis came to 37.8%. Besides, the early apoptosis in the series on CaCo-2 cells was 55.7%.

For `COc1ccc(NC(=S)N(CCNc2nnnn2-c2ccc(OC)cc2)CCNc2nnnn2-c2ccc(OC)cc2)cc1` [Compound 7, 3-(4-methoxyphenyl)-1,1-bis(2-{[1-(4-methoxyphenyl)-1H-tetrazol-5-yl]amino}ethyl)thiourea], the IC50 (in [3] (Homo sapiens); in [4] (Homo sapiens); in [6]; with HTB-140 cells (melanoma) (Homo sapiens)) was greater than 100 µM throughout. For the same compound, the “antiproliferative / cytotoxic activity in words” value in [7] was “biologically inactive”.

Turning to `COc1ccc(NC(=S)NCCN(CCNC(=S)Nc2ccc(OC)cc2)C(=S)Nc2ccc(OC)cc2)cc1` [Compound 1, 3-(4-methoxyphenyl)-1,1-bis{2-[3-(4-methoxyphenyl)-thioureido]ethyl}thiourea], the IC50 (in series [3] (Homo sapiens); in series [4] (Homo sapiens); in series [6]; in the series with HTB-140 cells (melanoma) (Homo sapiens)) was greater than 100 µM throughout. In addition, in series [7], the “antiproliferative / cytotoxic activity in words” value is “biologically inactive”.

In the case of `N.N.[Cl][Pt][Cl]` [Cisplatin, reference compound], the IC50 in series [3] was found to be 1.95 ± 0.83 µM; in series [4], 2.84 ± 1.06 µM; in the series with HTB-140 cells (melanoma), 1.13 ± 0.19 µM.

Take `S=C(NCCN(CCNC(=S)Nc1ccccc1)C(=S)Nc1ccccc1)Nc1ccccc1` [Compound 2, 3-phenyl-1,1-bis[2-(3-phenylthioureido)ethyl]thiourea]: the IC50 (in [3] (Homo sapiens); in [4] (Homo sapiens); in series [6]; in the series with HTB-140 cells (melanoma) (Homo sapiens)) was greater than 100 µM in each case. In addition, the “antiproliferative / cytotoxic activity in words” value in [7] is “biologically inactive”.

In the case of `Fc1ccc(NC(=S)NCCN(CCNC(=S)Nc2ccc(F)c(Cl)c2)C(=S)Nc2ccc(F)c(Cl)c2)cc1Cl` [Compound 5, 3-(3-chloro-4-fluorophenyl)-1,1-bis{2-[3-(3-chloro-4-fluorophenyl)thioureido]ethyl}thiourea], the IC50 in series [3] (Homo sapiens) is 15.4 ± 2.1 µM; in series [4] (Homo sapiens), 18.8 ± 4.3 µM; in [6] it was 17.9 ± 2.8 µM; in the series on HTB-140 cells (melanoma) (Homo sapiens), 14.8 ± 3.2 µM. The “SI (Selectivity Index)” value in series [3] is on record as 1.21; in series [6], 1.05; in the series with HTB-140 cells (melanoma) it was 1.27. The late apoptosis was 42.7% in the series with A549 cells and 32.8% with CaCo-2 cells.

For `S=C(NCCN(CCNC(=S)Nc1ccc(Cl)cc1)C(=S)Nc1ccc(Cl)cc1)Nc1ccc(Cl)cc1` [Compound 3, 3-(4-chlorophenyl)-1,1-bis{2-[3-(4-chlorophenyl)thioureido]ethyl}thiourea], the LDH release in series [2] (100 µM) came to 13.8%. Further, the IC50 in series [3] (Homo sapiens) was 25 ± 2.4 µM; in [4] (Homo sapiens), 29.9 ± 1.8 µM; in series [6], 27.7 ± 3.7 µM; with HTB-140 cells (melanoma) (Homo sapiens) it was 22.6 ± 2 µM; in series [7] it was 22.6 to 27.7 µM. For the same compound, the “SI (Selectivity Index)” value came to 1.19 in series [3], 1.08 in series [6] and 1.32 in the series on HTB-140 cells (melanoma). This compound also came in with a late apoptosis with A549 cells of 23.5%. Also, the “decrease of the IL-6 concentration” value in series [8] (versus control) is given as 1.7 times.

As for `S=C(NCCN(CCNC(=S)Nc1ccc(Br)cc1)C(=S)Nc1ccc(Br)cc1)Nc1ccc(Br)cc1` [Compound 4, 3-(4-bromophenyl)-1,1-bis{2-[3-(4-bromophenyl)thioureido]ethyl}thiourea], the IC50 worked out at 16.8 ± 1.9 µM in series [3] (Homo sapiens), 19.3 ± 3.5 µM in series [4] (Homo sapiens), 17.2 ± 1.9 µM in series [6] and 14.7 ± 1.5 µM in the series with HTB-140 cells (melanoma) (Homo sapiens). Also, the results for the “SI (Selectivity Index)” value (in series [3]; in series [6]; in the series on HTB-140 cells (melanoma)) were 1.15, 1.12 and 1.35, respectively. Besides, the late apoptosis in the series on A549 cells stood at 26.7%. Also, in series [8], the “inhibition of interleukin release as compared to the control, in words” value was “tenfold”. In the series with HTB-140 cells, the early apoptosis worked out at 28.6%.

Consider `COc1cccc2c1C(=O)c1c(O)c3c(c(O)c1C2=O)C[C@@](O)(C(=O)CO)C[C@@H]3O[C@H]1C[C@H](N)[C@H](O)[C@H](C)O1` [Doxorubicin, reference compound], for which the IC50 in series [3] (Homo sapiens) was found to be 0.63 ± 0.21 µM; in [4] (Homo sapiens), 1.09 ± 0.23 µM; in series [6], 0.53 ± 0.23 µM; with HTB-140 cells (melanoma) (Homo sapiens), 0.47 ± 0.18 µM. Moreover, the “SI (Selectivity Index)” value in series [3] amounted to 1.73; in [6] it was 2.06; with HTB-140 cells (melanoma) it was 2.32.
